Experimental findings from patent publication US9920030B2 (priority 2006, dated 2018) are described below.

Where two headings read alike, the source gives them in different places.

What all share (type): in vivo
In test [1] the test system is Plasmopara vilicola (the causal agent of grape downy mildew). Briefly: Test A: grape downy mildew, test suspension sprayed on grape seedlings after inoculation, visual disease rating. The method in brief: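 Curative spray: spores applied first, plants kept 24 h in saturated air at 20 °C and dried before treatment, then 5 days at 20 °C plus 24 h saturated. Suspension: acetone (3% of volume) in 1:1 acetone/water, 250 ppm Trem 014, sprayed to run-off (200 ppm ≈ 500 g/ha); visual 0–100 control rating.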

Test [2] has as its system Phytophthora infestans (the causal agent of tomato late blight). The test can be described thus: whole plant or invertebrate.
The test system is the same in test [3]. Briefly: whole plant or invertebrate. This is another data set of the same source.
Setting [4] is: compounds without asterisk (application rate not given), 100 = 100% disease control, 0 = no control relative to the controls.

Turning to `Cc1cc(C(F)(F)F)nn1CC(=O)N1CCC(c2nc(C3=NOC(C)(c4cc(Cl)sc4Cl)C3)cs2)CC1` (stereo not drawn) [Compound 132], in test [1] (* tested at 40 ppm), the “Percent Disease Control, Test A” value was determined as 85%. Besides, the “Percent Disease Control, Test B” value in test [2] (* tested at 40 ppm) is listed as 100%. In test [3] (* tested at 40 ppm), the “Percent Disease Control, Test C” value worked out at 91%.
The matching figures for `Cc1cc(C(F)(F)F)nn1CC(=O)N1CCC(c2nc(C3=NOC(S(=O)(=O)c4ccccc4)C3)cs2)CC1` (stereo not drawn) [Compound 117]: 93%, 100% and 99%.
The matching figures for `Cc1cc(C(F)(F)F)nn1CC(=O)N1CCC(c2nc(C3=NOC4(CCC4)C3)cs2)CC1` [Compound 193]: 100%, 100% and 99%.
Regarding `Cc1cc(C(F)(F)F)nn1CC(=O)N1CCC(c2nc(C3=NOC(c4cccc(C(F)(F)F)c4)C3)cs2)CC1` (stereo not drawn) [Compound 115], the “Percent Disease Control, Test A” value in test [1] (* tested at 40 ppm) was determined as 100%. The “Percent Disease Control, Test B” value in test [2] (* tested at 40 ppm) is given as 100%. Moreover, in test [3] (* tested at 40 ppm), the “Percent Disease Control, Test C” value was determined as 99%.
Regarding `Cc1cc(C(F)(F)F)nn1CC(=O)N1CCC(c2nc(C3=NOC(N4C(=O)CN(C)C4=O)C3)cs2)CC1` (stereo not drawn) [Compound 234], in test [1] (* tested at 40 ppm), the “Percent Disease Control, Test A” value turned out to be 99%. Besides, the “Percent Disease Control, Test B” value in test [2] (* tested at 40 ppm) is 100%. Also, in test [3] (* tested at 40 ppm), the “Percent Disease Control, Test C” value worked out at 100%.
As for `CC(=O)N1N=C(c2csc(C3CCN(C(=O)Cn4nc(C(F)(F)F)cc4C)CC3)n2)OC12CCCc1ccccc12` (stereo not drawn) [Compound 177], the “Percent Disease Control, Test A” value in test [1] (* tested at 40 ppm) was 93%. Besides, the “Percent Disease Control, Test B” value in test [2] (* tested at 40 ppm) was 100%. Also, the “Percent Disease Control, Test C” value in test [3] (* tested at 40 ppm) turned out to be 99%.
The matching figures for `CSCC1(c2ccccc2)CC(c2csc(C3CCN(C(=O)Cn4nc(C(F)(F)F)cc4C)CC3)n2)=NO1` (stereo not drawn) [Compound 142]: 97%, 100% and 98%.
Consider `O=C(Cn1nc(Cl)cc1Cl)N1CCC(c2nc(C3=NOC(c4ccccc4)C3)cs2)CC1` (stereo not drawn) [Compound 166], for which, in test [1] (** tested at l0 ppm), the “Percent Disease Control, Test A” value turned out to be 100%. Further, the “Percent Disease Control, Test B” value in test [2] (** tested at l0 ppm) was determined as 100%. Also, the “Percent Disease Control, Test C” value in test [3] (** tested at l0 ppm) was 98%.
Consider `Cc1cc(C(F)(F)F)nn1CC(=O)N1CCC(c2nc(-c3ccnn3-c3ccccc3)cs2)CC1` [Compound 78], for which the “Percent Disease Control, Test A” value in test [1] (setting [4]) is listed as 0%. For the same compound, in test [2] (setting [4]), the “Percent Disease Control, Test B” value is reported as 0%. Further, the “Percent Disease Control, Test C” value in test [3] (setting [4]) is 0%.
In the case of `Cc1cc(C(F)(F)F)nn1CC(=O)N1CCC(c2nc(C3=NOC(c4ccccc4Br)C3)cs2)CC1` (stereo not drawn) [Compound 189], in test [1] (* tested at 40 ppm), the “Percent Disease Control, Test A” value is 100%. Moreover, the “Percent Disease Control, Test B” value in test [2] (* tested at 40 ppm) is 100%. The “Percent Disease Control, Test C” value in test [3] (* tested at 40 ppm) is 99%.
For the compound `Cc1cc(C(F)(F)F)nn1CC(=O)N1CCC(c2nc(C3=NOC(C4(C)CO4)C3)cs2)CC1` (stereo not drawn) [Compound 200], in test [1] (setting [4]), the “Percent Disease Control, Test A” value came to 80%. The “Percent Disease Control, Test B” value in test [2] (setting [4]) came out at 100%. Besides, the “Percent Disease Control, Test C” value in test [3] (setting [4]) is 90%.
`C[C@]1(c2ccccc2)CC(c2csc(C3CCN(C(=O)Cn4nc(C(F)(F)F)cc4C(F)(F)F)CC3)n2)=NO1` [Compound 260, 2-[3,5-bis(triflyoromethyl)-1H-pyrazol-1-yl]-1-[4-[4-[(5R)-4,5-dihydro-5-methyl-5-phenyl-3-isoxazolyl]-2-thiazolyl]-1-piperidinyl]ethanone]: the “Percent Disease Control, Test A” value in test [1] (** tested at l0 ppm) is 100%. In test [2] (** tested at l0 ppm), the “Percent Disease Control, Test B” value worked out at 100%. In addition, the “Percent Disease Control, Test C” value in test [3] (** tested at l0 ppm) is 96%.
With `Cc1cc(C(F)(F)F)nn1CC(=O)N1CCC(c2nc(-c3ccc(Cl)cc3)cs2)CC1` [Compound 120], the “Percent Disease Control, Test A” value in test [1] (setting [4]) is on record as 99%. Besides, in test [2] (setting [4]), the “Percent Disease Control, Test B” value was 88%. The “Percent Disease Control, Test C” value in test [3] (setting [4]) stood at 0%.
With `Cc1cc(C(F)(F)F)nn1CC(=O)N1CCC(c2nc(C3=NCC(c4ccccc4)N3)cs2)CC1` (stereo not drawn) [Compound 92], the “Percent Disease Control, Test A” value in test [1] (* tested at 40 ppm) came to 13%. For the same compound, the “Percent Disease Control, Test B” value in test [2] (* tested at 40 ppm) stood at 33%. Besides, the “Percent Disease Control, Test C” value in test [3] (* tested at 40 ppm) is on record as 9%.
With `Cc1cc(C(F)(F)F)nn1CC(=O)N1CCC(c2nc(C3=NOC(C4OCCO4)C3)cs2)CC1` (stereo not drawn) [Compound 199], the “Percent Disease Control, Test A” value in test [1] (setting [4]) was 91%. Further, the “Percent Disease Control, Test B” value in test [2] (setting [4]) amounted to 99%. In test [3] (setting [4]), the “Percent Disease Control, Test C” value was 98%.
Turning to `CC(=O)Oc1ccc(C2CC(c3csc(C4CCN(C(=O)Cn5nc(C(F)(F)F)cc5C)CC4)n3)=NO2)cc1` (stereo not drawn) [Compound 113], in test [1] (* tested at 40 ppm), the “Percent Disease Control, Test A” value is 99%. Besides, in test [2] (* tested at 40 ppm), the “Percent Disease Control, Test B” value was 100%. Moreover, the “Percent Disease Control, Test C” value in test [3] (* tested at 40 ppm) worked out at 99%.
`Cc1cc(C(F)(F)F)nn1CC(=O)N1CCC(c2nc(C3CC(=O)N(c4ccccc4)C3)cs2)CC1` (stereo not drawn) [Compound 65]: the “Percent Disease Control, Test A” value in test [1] (setting [4]) stood at 46%. Further, the “Percent Disease Control, Test B” value in test [2] (setting [4]) turned out to be 100%. For the same compound, in test [3] (setting [4]), the “Percent Disease Control, Test C” value is on record as 83%.
The like results for `Cc1cc(C(F)(F)F)nn1CC(=O)N1CCC(c2nc(C3=NOC(c4ccncc4)C3)cs2)CC1` (stereo not drawn) [Compound 180] were, in that order, 50%, 100% and 99%.
For `O=C(Cn1nc(C(F)(F)F)cc1C(F)(F)F)N1CCC(c2nc(C3=NO[C@]4(CCCc5ccccc54)C3)cs2)CC1` (racemic) [Compound 229, 2-[3,5-bis(trifluoromethyl)-1H-pyrazol-1-yl]-1-[4-[4-[(1′R)-3′,4′-dihydrospiro[isoxazole-5(4H), 1′(2′H)-naphthalen]-3-yl]-2-thiazolyl]-1-piperidinyl]ethanone], the pest or weed control at 10 µg/mL in test [1] (Plasmopara, 144 h, ** tested at l0 ppm, read-out: Percent Disease Control, Test A) amounted to 100%; in test [2] (Phytophthora infestans, 144 h, read-out: Percent Disease Control, Test B), 100%; in test [3] (Phytophthora infestans, 96 h, read-out: Percent Disease Control, Test C) it was 100%.
Turning to `Cc1cc(C(F)(F)F)nn1CC(=O)N1CCC(c2nc(C3=NOC4c5ccccc5S(=O)(=O)C34)cs2)CC1` (stereo not drawn) [Compound 202], the “Percent Disease Control, Test A” value in test [1] (setting [4]) was found to be 95%. Further, the “Percent Disease Control, Test B” value in test [2] (setting [4]) came to 100%. The “Percent Disease Control, Test C” value in test [3] (setting [4]) was determined as 98%.
As for `Cc1cc(C(F)(F)F)nn1CC(=O)N1CCC(c2nc(C3=NOC4c5ccccc5CC34)cs2)CC1` (stereo not drawn) [Compound 51], the “Percent Disease Control, Test A” value in test [1] (setting [4]) was 99%. The “Percent Disease Control, Test B” value in test [2] (setting [4]) stood at 100%. In addition, in test [3] (setting [4]), the “Percent Disease Control, Test C” value was determined as 99%.
With “1-[4-[4-(4,5-dihydro-5-(2-pyridinyl)-3-isoxazolyl)-2-thiazolyl]-1-piperidinyl]-2-[5-methyl-3-(trifluoromethyl)-1H-pyrazol-1-yl]ethanone [Compound 98]”, the “Percent Disease Control, Test A” value in test [1] (setting [4]) worked out at 99%. Also, in test [2] (setting [4]), the “Percent Disease Control, Test B” value was 100%. Also, in test [3] (setting [4]), the “Percent Disease Control, Test C” value amounted to 99%.
For `Cc1cc(C(F)(F)F)nn1CC(=O)N1CCC(c2nc(C3=NOC4(CCC(C)(c5ccccc5)CC4)C3)cs2)CC1` (single isomer, unassigned) [Compound 187], in test [1] (* tested at 40 ppm), the “Percent Disease Control, Test A” value was found to be 99%. Further, the “Percent Disease Control, Test B” value in test [2] (* tested at 40 ppm) was 100%. In test [3] (* tested at 40 ppm), the “Percent Disease Control, Test C” value was 93%.
